# Experimental data from patent US20040072746A1, “Inhibitors of monocarboxylate transport” (priority 2001, published 2004).
# Where two headings read alike, the source gives them in different places.
# Legend:
# [1] = molecular target: T1, MCT1 with a streptavidin-binding sequence tag (Homo sapiens, UniProt P53985, D490E); assay: Yeast membrane MCT1-strep tagged SPA assay (125I ligand A); settings: 0.1 nM 125I ligand A
# T1 construct: The invention is not restricted to the use of full-length native human MCTs; made in house; host or cells: Saccharomyces cerevisiae BY4742 (jen1 deletion), membrane preparation; plasmid pACES14-MCT1-strep tag
# T1 sequence (P53985 1-500 D490E): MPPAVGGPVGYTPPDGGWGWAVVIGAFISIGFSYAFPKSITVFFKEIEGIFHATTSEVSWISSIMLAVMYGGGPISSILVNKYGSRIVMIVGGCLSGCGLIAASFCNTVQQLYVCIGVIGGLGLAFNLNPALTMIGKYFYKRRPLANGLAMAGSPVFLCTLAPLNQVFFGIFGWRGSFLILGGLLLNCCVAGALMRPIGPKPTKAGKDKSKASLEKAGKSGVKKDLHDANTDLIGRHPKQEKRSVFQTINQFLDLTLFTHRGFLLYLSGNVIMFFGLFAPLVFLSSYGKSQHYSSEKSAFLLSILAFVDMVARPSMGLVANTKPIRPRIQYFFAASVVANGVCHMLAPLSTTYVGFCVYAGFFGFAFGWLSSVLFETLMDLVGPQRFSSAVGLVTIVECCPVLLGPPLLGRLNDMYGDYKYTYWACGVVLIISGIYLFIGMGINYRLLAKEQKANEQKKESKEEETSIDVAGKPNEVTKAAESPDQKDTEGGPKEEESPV
# Description: Yeast membranes expressing MCT1 with a streptavidin-binding sequence tag were then added to give a final concentration of 37 μg/ml protein and gently rolled for >30 minutes at room temperature. The beads/membranes were then washed by centrifugation at ˜650 g for 10 minutes and resuspended in assay buffer+0.05% BSA. The washing was repeated once before resuspended in the appropriate volume of assay buffer+0.05% BSA.
# Finally, 80 μl of the membrane/bead suspension was added to each well. […] The raw counts were analysed by averaging replicates, subtraction of non-specific binding and the subsequent calculation of % inhibition of binding of the iodinated ligand.
# MCT1 = molecular target: T2, MCT1 (Homo sapiens, UniProt P53985, D490E); assay: Yeast expressed MCT1 filter binding assay (competition with 3H-ligand C); design: The invention is not restricted to the use of full-length native human MCTs; made in house; host or cells: Saccharomyces cerevisiae BY4742 (jen1 deletion), membrane preparation; plasmid pACES14-hMCT1; settings: yeast membrane MCT1 filter binding, 2.5 nM 3H-ligand C
# T2 sequence (P53985 1-500 D490E): T1 sequence (P53985 1-500 D490E)
# Description: Assay to Measure the Potency of Selected Compounds Using a Filter Binding Assay
# Competition assays can be used to measure the affinity of unlabelled compound for MCT1. […] 180 μl of yeast membranes expressing MCT1 in assay buffer containing typically 0.5 to 1 μg total protein was added to start the reaction. […] The competition assay was incubated at 2 hours at room temperature with shaking. Experimental data points were usually carried out in triplicate. The membranes were harvested onto GF-B filter plates and washed with assay buffer without BSA, dried, scintillant added and counts detected using a tritium program on a Packard Top Count plate reader. The results were analysed by subtraction of the non-specific binding from each of the experimental points and then fitting a sigmoidal curve through a semi-log plot of the data in Microcal Origin.
# activated T-lymphocytes [2] = assay: DNA synthesis ([3H]-thymidine incorporation) in activated T-lymphocytes; type: cell-based; settings: Homo sapiens, T-lymphocyte; Mean±s.e.mean (mean±range for n=2); read-out: pIA50 DNA (converted)
# Description: (§1) PBMCs were prepared as described above by separation over Lymphoprep and T-lymphocytes were then enriched by purification on a nylon wool column. Briefly, 0.6 g nylon wool was inserted into a 10 ml syringe and this was autoclaved. […] The PBMC were resuspended in 1 ml of pre-warmed RPMI (20% HS) and were loaded onto the nylon wool column. The column was incubated for 45 min at 37° C. followed by elution of the T-cells by adding 10 ml RPMI (20% HS) (prewarmed to 37° C.) dropwise to the column. The T-cells obtained from the elution of the column were centrifuged (850 g for 5 min) and resuspended in RPMI containing L-glutamine and 5% human serum and stimulated with 0.5 ng/ml PMA and 500 ng/ml lonomycin for 48 h.
# DNA synthesis was assessed by measuring the incorporation of [^3H]-thymidine. The assay was carried out in a 96-well plate. 20 μl of test compounds at 10× the final concentration were added to the plate followed by 200 μl of T-cells per well (2×10^5 cells). The cells were cultured for 4 h under standard cell culture conditions and cultures were pulsed with ^3H-thymidine (0.5 μCi/well; Amersham) for the final hour of the incubation.
# activated T-lymphocytes [3] = assay: Intracellular lactate levels in activated T-lymphocytes (lactate oxidase); type: cell-based; settings: Homo sapiens, T-lymphocyte; Mean±s.e.mean (mean±range for n=2); read-out: pIA50 Intracellular Lactate (converted)
# Description: as §1
# 100 μl of each concentration were added to triplicate wells of a 24-well plate. T-cells were then added (1 ml per well) and were cultured for 4 h under standard cell culture conditions. The cells were then transferred from each well to microfuge tubes and were centrifuged at 360 g for 5 min at 4° C. The supernatant was discarded and the cell pellet was resuspended in 1 ml of ice-cold PBS, pH5.0. The cells were washed twice in PBS by centrifugation (360 g, 5 min, 4° C.) followed by resuspension of the cell pellet in 100 μl deionized water. The cells were incubated for 15 min at 4° C. to allow cell lysis to occur and the cell debris was removed by centrifugation at 15000 g for 10 min at 4° C. 10 μl of each supernatant sample were used for the lactate determination.
# (§2) The assay was carried out in 96-well plates at room temperature. 10 μl of standard or sample were added to each well followed by 200 μl of the Lactate Reagent. […] The data were collected and analysed using SOFTmax PRO software (Molecular Devices).
# activated T-lymphocytes [4] = assay: Extracellular lactate levels in activated T-lymphocytes (lactate oxidase); type: cell-based, human
# Description: as §1
# 20 μl of each concentration were added to triplicate wells of a 96-well plate. T-cells were then added (200 μl per well, 2×10^5 cells) and were cultured for 4 h under standard cell culture conditions. The cell supernatants were collected from each well after the cells were pelleted by centrifugation of the plate at 850 g for 5 min at 4° C. 10 μl of each supernatant sample were used for the lactate determination.
# as §2
# [5] = system: peripheral blood mononuclear cells (PBMC); assay: T-lymphocyte proliferation, PMA/ionomycin stimulated PBMC, 3 days; settings: Homo sapiens, 72 h, read-out: pIA50 Proliferation (3 days) (converted)
# Description: The cell signalling pathways triggered by T-cell activation through the T cell receptor and CD28 can be mimicked in vitro using a phorbol ester, phorbol 12-myristate 13-acetate (PMA), which activates protein kinase C, and ionomycin, which induces calcium release from internal cellular stores. PMA and ionomycin-stimulated proliferation of peripheral blood mononuclear cells (PBMC), of which the predominant cell type is T-lymphocytes, provides a suitable assay for measuring the ability of small molecules to block T-cell proliferation.
# Blood was centrifuged at 850 g for 10 minutes and the plasma was removed. […] The blood/Lymphoprep layers were centrifuged at 850 g for 20 minutes at 18° C. (with no brake).
# 10 μl of compound in solution was then added to the 96-well flat bottom assay plate (final volume of 200 μl). […] Both were diluted to 4× the final assay concentration in complete medium. 50 μl of each reagent was dispensed per well to give a final assay concentration of 0.5 ng/ml PMA and 500 ng/ml ionomycin. Control wells received 100 μl cells with PMA only (negative control 1), with ionomycin only (negative control 2) and 100 μl cells with 50 μl PMA and 50 μl ionomycin with no test compound (positive control). 100 μl complete medium was added to the negative controls. […]
# rat MCT1 = molecular target: T3, rat MCT1 (Rattus norvegicus, UniProt P53987); settings: cited from earlier work
# T3 sequence (P53987 1-494): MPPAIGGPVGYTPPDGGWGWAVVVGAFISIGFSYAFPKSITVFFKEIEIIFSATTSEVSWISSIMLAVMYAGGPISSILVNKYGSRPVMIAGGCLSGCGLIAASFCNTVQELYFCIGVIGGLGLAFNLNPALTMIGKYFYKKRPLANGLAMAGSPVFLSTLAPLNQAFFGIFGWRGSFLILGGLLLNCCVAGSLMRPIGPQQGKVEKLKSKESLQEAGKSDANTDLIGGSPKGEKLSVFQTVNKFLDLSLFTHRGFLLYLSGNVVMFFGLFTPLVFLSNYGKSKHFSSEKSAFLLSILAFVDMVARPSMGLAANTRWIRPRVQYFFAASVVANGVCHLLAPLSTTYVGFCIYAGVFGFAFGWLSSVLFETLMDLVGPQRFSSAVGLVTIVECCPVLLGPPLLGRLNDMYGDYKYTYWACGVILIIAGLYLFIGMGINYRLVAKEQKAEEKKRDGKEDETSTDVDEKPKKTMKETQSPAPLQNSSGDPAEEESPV
# IgG2a production = assay: Inhibition of murine antibody production, IgG2a (ovalbumin in poly I:C); type: in vivo, Balb/c mice; settings: Mus musculus, sc, 168 h, subcutaneous, 7 days following antigenic boost
# Description: To measure the effect of the compound on IgG2a production, Balb/c mice were immunised with ovalbumin in poly I:C adjuvant (polyinosinic:polycytidylic acid adjuvant) and left for 14 days before being re-challenged with ovalbumin in buffered saline vehicle and left for a further 7 days. Serum samples were taken from the mice and analysed for total and specific IgG2a. Compound was dosed daily from re-challenge to termination prior to serum collection. For total IgG2A, microtitre plates were coated with 5 ug/ml of goat anti-mouse IgG2a in PBS and incubated overnight at 4° C. The plates were then washed four times with PBS containing 0.05% Tween 20 and then blocked with 1% BSA at room temperature for 2 hours. This was followed by two further plate washings. The serum samples and IgG2a standards were added to the wells in duplicate and incubated at 4° C. overnight. The plates were then washed a further four times before adding 50 ul alkaline phosphatase conjugated goat anti-mouse IgG appropriately diluted in 0.1% BSA in PBS and left at room temperature for an hour. The plate was washed a further four times before enzyme substrate (p-nitrophenyl phosphate in 1M diethanolamine buffer pH 9.8) at 1 mg/ml was added. Once the colour reaction developed, the absorbance of the wells at 405 nm was read in a spectrophotometer. […]
# IgE production = assay: Inhibition of murine antibody production, IgE (ovalbumin immunised); type: in vivo, Balb/c mice; settings: 10 days following antigenic boost
# Description: Balb/c mice were immunised with 0.5 mg/kg ovalbumin (OVA) and 200 mg/kg aluminium hydroxide gel in saline intraperitoneally and left for 29 days before being re-challenged intraperotoneally with 0.5 mg/kg ovalbumin in buffered saline vehicle and left for a further 10 days. Compound was dosed daily from re-challenge to termination prior to serum collection. Control groups were dosed with compound vehicle only. On completion of dosing, serum samples were taken from the mice and analysed for total and specific levels of IgE.
# For total IgE, microtitre plates were coated with 5 ug/ml monoclonal rat anti-mouse IgE in phosphate buffered saline (PBS) and incubated overnight at 4° C. The plates were then washed four times with PBS containing 0.05% Tween 20 and then blocked with 1% BSA in PBS at room temperature for 2 hours. This was followed by two further plate washings.
# The serum samples and IgE standards were added to the wells in duplicate and incubated overnight. The plates were then washed a further four times before adding 50 ul biotinylated monoclonal rat anti-mouse IgE appropriately diluted in 0.1% BSA in PBS for 2 hours. The plate was washed for a further four times before adding 50 ul streptavidin alkaline phosphatase conjugate appropriately diluted in 1% BSA in PBS at room temperature for 50 minutes. The plate was washed a further four times before enzyme substrate (paranitrophenyl phoshate in 1M diethanolamine buffer pH 9.8) at 1 mg/ml was added. Once the colour reaction developed, the plate was read at 405 nm. Levels of total IgE in serum samples were extrapolated from curve obtained with IgE standards.
# For specific IgE, the methodology was similar except for the following. The microtitre plates were coated with 50 ug/ml rat anti-mouse IgE. The serum samples or normal control sera were added to the washed plates. Biotinylated OVA diluted in 0.1% BSA in PBS was used as enzyme marker.
smiles,measurement,setting,value
"CC(C)Cn1c(=O)n(C)c(=O)c2cc(Cc3nc4ccccc4s3)sc21 [Ligand 4, 6-([benzothiazol-2-yl]methyl)-3-methyl-1-(2-methylpropyl)thieno[2,3-d]pyrimidine-2,4(1H,3H)-dione]",IC50,[1],32.2 nM
same,IC50,MCT1,787 nM
"CC(C)Cn1c(=O)n(C)c(=O)c2cc(Cc3ccnc4ccccc34)sc21 [Ligand 3, 6-(4-quinolinylmethyl)--3-methyl-1-(2-methylpropyl)-thieno[2,3-d]pyrimidin-2,4(1H,3H)-dione]",IC50,[1],15.4 nM
same,IC50,MCT1,105 nM
"CON(C)C(=O)c1c(Cn2c(C)nc(Cl)c2Cl)sc2c1c(=O)n(C)c(=O)n2CC(C)C [Ligand 5, 6-[(4,5-Dichloro-2-methyl-1H-imidazol-1-yl)methyl]-1,2,3,4-tetrahydro-N-methoxy-N,3-dimethyl-1-(2-methylpropyl)-2,4-dioxo-thieno[2,3-d]pyrimidine-5-carboxamide]",IC50,activated T-lymphocytes [2],2.69 nM
same,EC50,activated T-lymphocytes [3],2.29 nM
same,IC50,"activated T-lymphocytes [4]; Homo sapiens, T-lymphocyte, Mean±s.e.mean (mean±range for n=2), read-out: pIA50 Extracellular Lactate (converted)",3.8 nM
same,IC50,[5],1.66 nM
O=C(CCc1ccc(O)cc1)c1c(O)cc(O)cc1O [phloretin],IC50,rat MCT1,1 µM
"CC(C)Cn1c(=O)n(C)c(=O)c2c(SCCCO)c(Cc3cccc4ccccc34)sc21 [Ligand 1, 5-[(3-hydroxypropyl)thio]-3-methyl-1-(2-methylpropyl)-6-(1-napthalenylmethyl)thieno[2,3-d]pyrimidine-2,4(1H,3H)-dione]",ED50,"IgG2a production; read-out: ED50, specific IgG2a production",10 mg/kg
same,ED50,"IgG2a production; read-out: ED50, total IgG2a production",30 mg/kg
same,EC50,activated T-lymphocytes [3],0.407 nM
same,inhibition of OVA specific IgE,IgE production; 3 mg/kg subcutaneous,64%
same,inhibition of total IgE,IgE production; 3 mg/kg subcutaneous,67%
same,inhibition of OVA specific IgE,IgE production; 30 mg/kg subcutaneous,53%
same,inhibition of total IgE,IgE production; 30 mg/kg subcutaneous,84%
same,"maximum level of inhibition, extracellular lactate",activated T-lymphocytes [4],30±1.9%
"N#CC(=Cc1ccc(O)cc1)C(=O)O [CHC, α-cyano-4-hydroxycinnamate]",IC50,rat MCT1,27 µM
"O=S(=O)(O)c1cc(N=C=S)ccc1C=Cc1ccc(N=C=S)cc1S(=O)(=O)O [DIDS, 4,4′-di-isothiocyanatostilbene-2,2′-disulphonate]",IC50,rat MCT1,50 µM
